# Reference: patent US8192962B2, “Processes for detecting toxic substances” (Daikin Industries, Ltd., priority 2001, dated 2012)
# Tested on: Mitochondria-located protein genes
# Assay: DNA chip mRNA expression in yeast, mitochondria-located protein genes (Table 2)
# Format: cell-based, Saccharomyces cerevisiae S288C
# Settings: cells incubated two hours with the chemical substance
# Method in brief: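 Chemical exposure: 2 h, log-phase S. cerevisiae S288C, YPD, 25° C., dose set to inhibit growth without death. Profiling: mRNA labeled by reverse transcription with Cy3- or Cy5-dUTP, hybridized to whole-genome array. Output: fluorescence ratio against untreated culture.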
compound,measurement,setting,value
"C[S+](C)[O-] [(15), dimethylsulfoxide]",The level of expressed mRNA in the presence of chemical substance/The level of expressed mRNA in the absence of chemical substance,yeast gene YBR029C,3.5
same,The level of expressed mRNA in the presence of chemical substance/The level of expressed mRNA in the absence of chemical substance,yeast gene YBR291C,0.5
same,The level of expressed mRNA in the presence of chemical substance/The level of expressed mRNA in the absence of chemical substance,yeast gene YDR529C,0.5
same,The level of expressed mRNA in the presence of chemical substance/The level of expressed mRNA in the absence of chemical substance,yeast gene YEL039C,0.4
same,The level of expressed mRNA in the presence of chemical substance/The level of expressed mRNA in the absence of chemical substance,yeast gene YGR029W,0.4
same,The level of expressed mRNA in the presence of chemical substance/The level of expressed mRNA in the absence of chemical substance,yeast gene YGR062C,0.5
same,The level of expressed mRNA in the presence of chemical substance/The level of expressed mRNA in the absence of chemical substance,yeast gene YGR076C,0.5
same,The level of expressed mRNA in the presence of chemical substance/The level of expressed mRNA in the absence of chemical substance,yeast gene YIL022W,2.9
same,The level of expressed mRNA in the presence of chemical substance/The level of expressed mRNA in the absence of chemical substance,yeast gene YIL094C,0.5
same,The level of expressed mRNA in the presence of chemical substance/The level of expressed mRNA in the absence of chemical substance,yeast gene YJL166W,0.5
same,The level of expressed mRNA in the presence of chemical substance/The level of expressed mRNA in the absence of chemical substance,yeast gene YKL085W,0.5
same,The level of expressed mRNA in the presence of chemical substance/The level of expressed mRNA in the absence of chemical substance,yeast gene YKL170W,0.8
same,The level of expressed mRNA in the presence of chemical substance/The level of expressed mRNA in the absence of chemical substance,yeast gene YKL194C,0.8
same,The level of expressed mRNA in the presence of chemical substance/The level of expressed mRNA in the absence of chemical substance,yeast gene YKR052C,0.5
same,The level of expressed mRNA in the presence of chemical substance/The level of expressed mRNA in the absence of chemical substance,yeast gene YLL041C,0.4
same,The level of expressed mRNA in the presence of chemical substance/The level of expressed mRNA in the absence of chemical substance,yeast gene YLR295C,0.5
same,The level of expressed mRNA in the presence of chemical substance/The level of expressed mRNA in the absence of chemical substance,yeast gene YLR395C,0.4
same,The level of expressed mRNA in the presence of chemical substance/The level of expressed mRNA in the absence of chemical substance,yeast gene YML110C,1.3
same,The level of expressed mRNA in the presence of chemical substance/The level of expressed mRNA in the absence of chemical substance,yeast gene YML120C,0.5
same,The level of expressed mRNA in the presence of chemical substance/The level of expressed mRNA in the absence of chemical substance,yeast gene YOR037W,0.9
same,The level of expressed mRNA in the presence of chemical substance/The level of expressed mRNA in the absence of chemical substance,yeast gene YOR374W,2.5
